Patent US10676508B2, “DEPDC1-derived peptide and vaccine containing same” (OncoTherapy Science, Inc., priority 2015, dated 2020)

Columns and labels:
[1] = test system: peptide-pulsed C1R-A01 cells; test: In vitro CTL induction, IFN-gamma ELISPOT assay (HLA-A*0101); format: cell-based, human; conditions: CTLs from HLA-A*0101-positive donors, DCs pulsed with 20 micro-g/ml peptide, day 21, versus unpulsed C1R-A01
Description: Monocyte-derived dendritic cells (DCs) were used as the antigen-presenting cell to induce a cytotoxic T lymphocyte (CTL) response against peptides presented on human leukocyte antigens (HLAs). As described in the other sections, DCs were generated in vitro (Nakahara S et al., Cancer Res 2003, 63(14): 4112-8). Specifically, peripheral-blood mononuclear cells isolated from healthy volunteers (HLA-A*0101-positive) with the Ficoll-Paque plus solution (Pharmacia) were separated by attaching to plastic tissue culture dishes (Becton Dickinson) and concentrated as a monocyte fraction. The monocyte-concentrated population was cultured in the presence of 1000 IU/ml granulocyte macrophage colony-stimulating factor (R&D System) and 1000 IU/ml interleukin (IL)-4 (R&D System) in an AIM-V medium (Invitrogen) containing 2% heat-inactivated autologous serum (AS). After seven days of culturing, the cytokine-induced DCs were pulsed with 20 micro-g/ml each of the synthesized peptides in an AIM-V medium at 37 degrees C. for three hours in the presence of 3 micro-g/ml beta 2-microglobulin. Next, these peptide-pulsed DCs were inactivated by X-ray irradiation (20 Gy), and mixed in a 1:20 ratio with autologous CD8^+ T cells obtained by positive selection using the CD8 Positive Isolation Kit (Dynal). These culture products were seeded in a 48-well plate (Corning). Each well was made to contain 1.5×10^4 peptide-pulsed DCs, 3×10^5 CD8^+ T cells and 10 ng/ml IL-7 (R&D System) in 0.5 ml of the AIM-V/2% AS medium. Three days later, these culture products were added with a final concentration of 20 IU/ml IL-2 (CHIRON). On day 7 and day 14, T cells were further stimulated with peptide-pulsed autologous DCs. The DCs were prepared every time by the same method as above. On day 21, after the third peptide stimulation, CTL activities were examined against the peptide-pulsed C1R-A01 cells (Tanaka H et al., Br J Cancer 2001, 84(1): 94-9; Umano Y et al., Br J Cancer 2001, 84(8): 1052-7; Uchida N et al., Clin Cancer Res 2004, 10(24): 8577-86; Suda T et al., Cancer Sci 2006, 97(5): 411-9; Watanabe T et al., Cancer Sci 2005, 96(8): 498-506).
To examine specific CTL activity, an IFN-gamma ELISPOT assay and an IFN-gamma ELISA were performed. Specifically, peptide-pulsed C1R-A01 cells (1×10^4 cells/well) were prepared as the stimulator cell. The induced CTLs, i.e., CTL lines and CTL clones, were used as the responder cell. The IFN-gamma ELISPOT assay and IFN-gamma ELISA were performed according to the manufacturer's manual.

peptide-pulsed C1R-A11 = test: In vitro CTL induction, IFN-gamma ELISPOT assay (HLA-A*1101); format: cell-based, human; conditions: CTLs from HLA-A*1101-positive donors, DCs pulsed with 20 micro-g/ml peptide, day 21, versus unpulsed C1R-A11
Description: Monocyte-derived dendritic cells (DCs) were used as the antigen-presenting cell to induce a cytotoxic T lymphocyte (CTL) response against peptides presented on human leukocyte antigens (HLAs). As described in the other sections, DCs were generated in vitro (Nakahara S et al., Cancer Res 2003, 63(14): 4112-8). Specifically, peripheral-blood mononuclear cells isolated from healthy volunteers (HLA-A*1101-positive) with the Ficoll-Paque plus solution (Pharmacia) were separated by attaching to plastic tissue culture dishes (Becton Dickinson) and concentrated as a monocyte fraction. The monocyte-concentrated population was cultured in the presence of 1000 IU/ml granulocyte macrophage colony-stimulating factor (R&D System) and 1000 IU/ml interleukin (IL)-4 (R&D System) in an AIM-V medium (Invitrogen) containing 2% heat-inactivated autologous serum (AS). After seven days of culturing, the cytokine-induced DCs were pulsed with 20 micro-g/ml each of the synthesized peptides in an AIM-V medium at 37 degrees C. for three hours in the presence of 3 micro-g/ml beta 2-microglobulin.
Next, these peptide-pulsed DCs were inactivated by X-ray irradiation (20 Gy), and mixed in a 1:20 ratio with autologous CD8^+ T cells obtained by positive selection using the CD8 Positive Isolation Kit (Dynal). These culture products were seeded in a 48-well plate (Corning). […]

Sequence | peptide-specific CTL activity (IFN-gamma production, ELISPOT) [1] | peptide-specific CTL activity (IFN-gamma production, ELISPOT) (peptide-pulsed C1R-A11)
AGEAVDWLY (a peptide derived from DEPDC1) [SEQ ID NO: 82] | potent IFN-gamma production | –
ATINKRLCK (a peptide derived from DEPDC1) [SEQ ID NO: 2] | – | specific IFN-gamma production was not observed
ESQGVPPGPY (a peptide derived from DEPDC1) [SEQ ID NO: 91] | potent IFN-gamma production | –
EVWRYVILIY (a peptide derived from DEPDC1) [SEQ ID NO: 99] | potent IFN-gamma production | –
FLESKPKQEF (a peptide derived from DEPDC1) [SEQ ID NO: 102] | potent IFN-gamma production | –
FQKEYPLIY (a peptide derived from DEPDC1) [SEQ ID NO: 87] | potent IFN-gamma production | –
HQEILQVPSY (a peptide derived from DEPDC1) [SEQ ID NO: 103] | potent IFN-gamma production | –
HSEENIQKPF (a peptide derived from DEPDC1) [SEQ ID NO: 101] | potent IFN-gamma production | –
KSDDLPHWV (a peptide derived from DEPDC1) [SEQ ID NO: 81] | potent IFN-gamma production | –
LFAPLPTYSY (a peptide derived from DEPDC1) [SEQ ID NO: 96] | potent IFN-gamma production | –
LPEPLLTFEY (a peptide derived from DEPDC1) [SEQ ID NO: 107] | potent IFN-gamma production | –
LSENSLLPA (a peptide derived from DEPDC1) [SEQ ID NO: 84] | potent IFN-gamma production | –
LTFEYYELF (a peptide derived from DEPDC1) [SEQ ID NO: 88] | potent IFN-gamma production | –
NVDDNNQLF (a peptide derived from DEPDC1) [SEQ ID NO: 85] | potent IFN-gamma production | –
PTTESEAALF (a peptide derived from DEPDC1) [SEQ ID NO: 94] | specific IFN-gamma production was not observed | –
QEDVEEVWRY (a peptide derived from DEPDC1) [SEQ ID NO: 106] | potent IFN-gamma production | –
QTAVEKHLDY (a peptide derived from DEPDC1) [SEQ ID NO: 90] | potent IFN-gamma production | –
RSNDMNNPTY (a peptide derived from DEPDC1) [SEQ ID NO: 58] | potent IFN-gamma production | –
RSSTRRNSY (a peptide derived from DEPDC1) [SEQ ID NO: 21] | potent IFN-gamma production | –
SNDMNNPTY (a peptide derived from DEPDC1) [SEQ ID NO: 86] | potent IFN-gamma production | –
STECLLLSLL (a peptide derived from DEPDC1) [SEQ ID NO: 104] | potent IFN-gamma production | –
TAGEAVDWLY (a peptide derived from DEPDC1) [SEQ ID NO: 92] | potent IFN-gamma production | –
TTESEAALF (a peptide derived from DEPDC1) [SEQ ID NO: 83] | potent IFN-gamma production | –
VSDRSSGIH (a peptide derived from DEPDC1) [SEQ ID NO: 89] | potent IFN-gamma production | –
